“Also recorded” adds a separate entry of the source. Where a name gives a salt, the structure may show the parent alone.
Experiments:
[1] = tested on: β-TC3 cells; assay: Cytokine-induced DNA fragmentation in β-TC3 cells; type: cell-based, mouse; details: β-TC3 cells (n=2); same results in NIT-1 cells (n=3)
[2] = tested on: L-type Ca^2+ current; assay: Patch clamp recording (whole-cell and perforated patch) of L-type Ca^2+ current in insulin-secreting (INS-1) cells; type: cell-based, rat; details: for effect on L-type Ca^2+ current from inside of cells: 1 μM in the pipette solution, 5 min after patch formation
Procedure: (§1) Cell Culture—INS-1 cells were cultured in RPMI 1640 medium containing 10% FBS, 25 U/ml penicillin, […] streptomycin and 50 μM mercaptoethanol in an atmosphere of 5% CO2 in air, at 37° C. for 2-5 days before recording.
(§2) β-cells Electrophysiological recording—The whole-cell recordings were carried out by the standard “giga-seal” patch clamp technique (Hamill et al.). The whole-cell recording pipettes were made of hemocapillaries (Warner), pulled by a two-stage puller (PC-10, Narishige International, New York, N.Y.), and heat polished with a microforge (MF200-1, World Precision Instruments, Sarasota, Fla.) before use. Pipette resistance was in the range of 2-5 MΩ in the internal solution. The recordings were performed at room temperature (22-25° C.). Currents were recorded using an EPC-9 patch-clamp amplifier (HEKA) and filtered at 2.9 kHz. Data were acquired with Pulse/PulseFit software (HEKA). Voltage-dependent currents were corrected for linear leak and residual capacitance by using an on-line P/n subtraction paradigm.
(§3) Solutions—The extracellular solution used in whole-cell Ca^2+ current recording contained (in mM): 10 CaCl21 110 tetraethylammonium-Cl (TEA-Cl), 10 CsCl, 10 N-2-hydroxyethylpiperazine-N′-2-ethanesulfonic acid (HEPES), 40 sucrose, 0.5 3,4-diaminopyridine, pH 7.3. The intracellular solution contained (in mM): 130 N-methyl-D-glucamine, 20 EGTA (free acid), 5 bis (2-aminophenoxy) ethane-N,N,N′,N′-tetraacetate (BAPTA), 10 HEPES, 6 MgCl2, 4 Ca(OH)2/pH was adjusted to 7.4 with methanesulfonate. 2 mM Mg-ATP was included in the pipette solution to minimize rundown of L-type Ca^2+ currents. For Perforated-patch recording, the extracellular solution contained (in mM): 26 Sucrose, 30 TEA-Cl, 10 HEPES, 5 KCl, 2 CaCl2, MgCl2, pH 7.3. The pipette solution contained (in mM): 65 CsOH, 65 CsMS, 20 sucrose, 10 HEPES, 10 MgCl2, 1 Ca(OH)2, pH 7.4.
(§4) The T-type Ca^2+ current was measured at −30 mV when the membrane was held at −90 mV and the L-type current was measured at +20 mV when the membrane was held at −40 mV. The currents were measured twice at each concentration of mibefradil with 2 min in between measurements.
(§5) A drug diffusing system was then used to test the reversibility of the antagonism of T- and L-type Ca^2+ currents by mibefradil. Small volumes (approximately 2 μl) of drugs were delivered in close proximity to the recording cell with a quartz capillary positioned by a micromanipulator. After administration, drugs diffused throughout the entire recording chamber containing 2 ml of bath solution. This drug diffusing system was used to test the reversibility of 30 μM of NiCl2 on the T-type Ca^2+ currents (FIG. 4).
This hypothesis was tested by applying a very low dose of mibefradil on cells and recording the L-type Ca^2+ currents for a long time in the perforated patch-clamp configuration.

[3] = tested on: HIT-T15; assay: Glucose-induced insulin secretion in HIT-T15 cells; type: cell-based; details: 11.1 mM glucose, variable concentrations of NiCl2
[4] = tested on: INS-1 cells; assay: Action potentials (excitability) of INS-1 cells; type: cell-based, rat; details: 100 μM
Procedure: Particularly, activation of T type Ca^2+ channels will increase the firing frequency of the depolarizing spikes mediated by opening L type Ca^2+ channels (FIG. 19A). Activation of T type Ca^2+ channel will also decrease the time of developing action potential elicited by up-threshold depolarizations (FIG. 19B).
To further establish that T type Ca^2+ current enhances β-cells excitability, 100 μM NiCl2 was administered to effectively block T type Ca^2+ channels.

[5] = target: T-type Ca^2+ current (Rattus norvegicus, UniProt O54898); assay: Patch clamp recording of T-type Ca^2+ current in insulin-secreting (INS-1) cells; type: cell-based; details: for reversibility of the inhibition of T-type Ca^2+ current: small volume delivered near the cell
Procedure: as §1, §2, §3, §4, §5

[6] = tested on: mouse islet cells; assay: Cytokine-induced increase in basal [Ca^2+]i in primary cultured mouse islet cells; type: cell-based; details: 10 μM; IL-1β 25 U/ml and IFNγ 300 U/ml for 6 h
Text: LVA Ca^2+ channels are activated at low membrane potentials. This unique feature may allow then to regular [Ca^2+]i under nonstimulatory conditions. Indeed, basal [Ca^2+]i in cytokine-treated cells was approximately 3-fold higher than in nontreated cells (FIG. 24A).

[7] = tested on: INS-1 cells; assay: Glucose-induced insulin secretion in INS-1 cells; type: cell-based, rat; details: 11.1 mM glucose, variable concentrations of NiCl2
[8] = tested on: LVA Ca^2+ current; assay: Cytokine-induced LVA Ca^2+ current in primary cultured mouse islet cells; type: cell-based; details: 10 μM; IL-1β 25 U/ml and IFNγ 300 U/ml for 6 h; n=4
Procedure: The effects of chronic cytokine treatment on the voltage-sensitive Ca^2+ currents in primary cultured mouse islet cells was examined. After treatment with IL-1β (25 U/ml) and IFNγ (300 U/ml) for 6 h, an LVA Ca^2+ current was induced in these cells (FIG. 23A). This current was present in 48% of cytokine-treated mouse islet cells. No such current was observed when the cells were treated with either IL-1β or IFNγ alone. […] This LVA current has not been observed in non-treated cells. […] It has been reported that low concentration of NiCl2 selectively block LVA current, a profound […] in Ca^2+ current density was observed over the voltages between −20 and 20 mV.

[9] = tested on: INS-1 cells; assay: Transient spontaneous calcium spikes in a single INS-1 cell, epi-fluorescence; type: cell-based, rat; details: 30 μM, bath solution without glucose
Text: The cellular mechanism of the spontaneous elevation of intracellular Ca^2+ was investigated with the epi-fluorescence measurement method. […] The Role of T-type Ca^2+ channels in this spontaneous process was examined as well. […] These spontaneous calcium spikes may contribute to basal insulin secretion and control of basal [Ca^2+]i.

[10] = tested on: β-TC3 cells; assay: Cytokine-induced cell death in β-TC3 cells; type: cell-based, mouse; details: NiCl2 20 μM, nifedipine 10 μM; IL-1β 25 U/ml, IFNγ 100 U/ml, TNFα 100 U/ml
Text: The function of LVA Ca^2+ channels in cytokine-mediated cell death in β-TC3 cells was then examined.

[11] = tested on: NIT-1 cells; assay: Spontaneous elevation of [Ca^2+]i in NIT-1 cells, Fluo-3 fluorescent imaging; type: cell-based, mouse; details: 10 μM, 3.3 mM glucose, 10 minute observation
Procedure: NIT-1 cells were cultured in medium containing 3.3 mM glucose and preloaded with 2.5 μM Fluo-3 μM. The numbers of spontaneous calcium elevated cells were counted and compared to the total cells being used for a 10 minute observation period. 10 μM NiCl2 inhibited 90% of spontaneous elevation of basal Ca^2+.

[12] = tested on: INS-1 cells; assay: Basal [Ca^2+]i in INS-1 cells by fura-2 fluorescence; type: cell-based, rat
Procedure: [Ca^2+]i was directly measured by the ratio of fluorescence excitations at Ca^2+-bound […], and then the ratio was converted to the calcium concentration. The bath solution contained […], 4 mM KCl, 2 mM CaCl2, and 2 mM MgCl2.
The effect of basal [Ca^2+]i on Ca^2+ influx was examined using the Ca^2+ dye indicator fura-2 and fluorescence measurements. Voltage-dependent Ca^2+ influx in a single cell was obtained by perfusion of an osmotically balanced solution containing 50 mM KCl into the recording chamber. […] The resting basal [Ca^2+]i in INS-1 cells was approximately 60-80 nM under the experimental conditions. [Ca^2+]i was determined by a standard curve obtained from a fura-2 calcium imaging kit (Molecule Probes). The empirical Kd obtained for calcium binding to fura-2 in the system was 296±20 nM. When basal [Ca^2+]i remains low, subsequent voltage stimulation with 50 KCl induces rapid and large calcium influx into the cell and these calcium changes are stereotyped upon repetitive stimulation when basal calcium is restored (FIG. 10). In this experiment, following the 50 KCl depolarization, the cell was repolarized by perfusion of the original 5 mM KCl solution. After repolarization, basal [Ca^2+]i slowly reset and then a second 50 KCl depolarization induced a similar [Ca^2+]i transient. When the basal calcium is not allowed to reset, a defect in the second voltage induced calcium transient occurs (FIG. 11). […] Therefore effectors of basal [Ca^2+]i will have important impact on the amount of calcium that can enter the cell.

[13] = rat; cited from earlier work
[14] = tested on: NIT-1 cells; assay: Basal insulin secretion in NIT-1 cells; type: cell-based, mouse; details: 5 μM mibefradil, 3 mM glucose
Text: NIT-1 is a cell line derived from the β-cells of non-obese-diabetic mouse. This cell line expressed high levels of T-type Ca^2+ current.

[15] = tested on: T-type Ca^2+ current; details: vascular smooth muscle cells; cited from earlier work
[16] = Mass spectrometric analysis of mibefradil and dm-mibefradil in INS-1 cells
Procedure: Mass Spectrometric Analysis—A VG 70-250 SEQ instrument (VG Analytical, Manchaster, UK) was used with fast atom bombardment (FAB) ionization mode to obtain mass spectra of the mibefradil and dm-mibefradil. Cultured INS-1 cells were treated with 20 μM mibefradil for various lengths of time under each experimental condition. The cell pellets were collected after washing three times with PBS and resuspended in 0.5 ml media for mass spectrometric analysis. For a 50 μl cell sample, 20 μl internal standard solution (40 μM verapamil, MW: 454) and 5 μl glycerol was added, and 4 μl of this mixture was used for FAB-MS. Several positive ion spectra were recorded in the mass range m/z 750-100 at a mass resolution of 1000, and a scan speed of 2 second/decade. For mibefradil, m/z 496 was the dominant ion (M+H)^+ accompanied with a less intense sodiated molecular ion m/z 518. The concentrations of the mibefradil and hydrolyzed mibefradil were obtained by comparing the intensities of m/z 496 and 424 were to the intensity of m/z 455. For calibration, a standard solution of 50 μM drug was subjected to mass spectrometric analysis.
To test the hypothesis that mibefradil may permeate through the cell membrane to the cytoplasm and be trapped inside cells, the presence of mibefradil was examined in cells pre-incubated with 20 μM of mibefradil using mass spectrometry. […] The localization of mibefradil in cells was examined by measuring the concentration of mibefradil in the pellets and supernatants after lysis of the cells.

[17] = tested on: NIT-1 cells; assay: Cytokine-induced cell death in NIT-1 cells; type: cell-based, mouse
[18] = 5 mM for 1 hour, followed by 3 hour recovery
[19] = cells pre-incubated with 20 μM mibefradil

T-type Ca^2+ current (Rattus norvegicus, UniProt O54898), sequence (O54898 whole entry): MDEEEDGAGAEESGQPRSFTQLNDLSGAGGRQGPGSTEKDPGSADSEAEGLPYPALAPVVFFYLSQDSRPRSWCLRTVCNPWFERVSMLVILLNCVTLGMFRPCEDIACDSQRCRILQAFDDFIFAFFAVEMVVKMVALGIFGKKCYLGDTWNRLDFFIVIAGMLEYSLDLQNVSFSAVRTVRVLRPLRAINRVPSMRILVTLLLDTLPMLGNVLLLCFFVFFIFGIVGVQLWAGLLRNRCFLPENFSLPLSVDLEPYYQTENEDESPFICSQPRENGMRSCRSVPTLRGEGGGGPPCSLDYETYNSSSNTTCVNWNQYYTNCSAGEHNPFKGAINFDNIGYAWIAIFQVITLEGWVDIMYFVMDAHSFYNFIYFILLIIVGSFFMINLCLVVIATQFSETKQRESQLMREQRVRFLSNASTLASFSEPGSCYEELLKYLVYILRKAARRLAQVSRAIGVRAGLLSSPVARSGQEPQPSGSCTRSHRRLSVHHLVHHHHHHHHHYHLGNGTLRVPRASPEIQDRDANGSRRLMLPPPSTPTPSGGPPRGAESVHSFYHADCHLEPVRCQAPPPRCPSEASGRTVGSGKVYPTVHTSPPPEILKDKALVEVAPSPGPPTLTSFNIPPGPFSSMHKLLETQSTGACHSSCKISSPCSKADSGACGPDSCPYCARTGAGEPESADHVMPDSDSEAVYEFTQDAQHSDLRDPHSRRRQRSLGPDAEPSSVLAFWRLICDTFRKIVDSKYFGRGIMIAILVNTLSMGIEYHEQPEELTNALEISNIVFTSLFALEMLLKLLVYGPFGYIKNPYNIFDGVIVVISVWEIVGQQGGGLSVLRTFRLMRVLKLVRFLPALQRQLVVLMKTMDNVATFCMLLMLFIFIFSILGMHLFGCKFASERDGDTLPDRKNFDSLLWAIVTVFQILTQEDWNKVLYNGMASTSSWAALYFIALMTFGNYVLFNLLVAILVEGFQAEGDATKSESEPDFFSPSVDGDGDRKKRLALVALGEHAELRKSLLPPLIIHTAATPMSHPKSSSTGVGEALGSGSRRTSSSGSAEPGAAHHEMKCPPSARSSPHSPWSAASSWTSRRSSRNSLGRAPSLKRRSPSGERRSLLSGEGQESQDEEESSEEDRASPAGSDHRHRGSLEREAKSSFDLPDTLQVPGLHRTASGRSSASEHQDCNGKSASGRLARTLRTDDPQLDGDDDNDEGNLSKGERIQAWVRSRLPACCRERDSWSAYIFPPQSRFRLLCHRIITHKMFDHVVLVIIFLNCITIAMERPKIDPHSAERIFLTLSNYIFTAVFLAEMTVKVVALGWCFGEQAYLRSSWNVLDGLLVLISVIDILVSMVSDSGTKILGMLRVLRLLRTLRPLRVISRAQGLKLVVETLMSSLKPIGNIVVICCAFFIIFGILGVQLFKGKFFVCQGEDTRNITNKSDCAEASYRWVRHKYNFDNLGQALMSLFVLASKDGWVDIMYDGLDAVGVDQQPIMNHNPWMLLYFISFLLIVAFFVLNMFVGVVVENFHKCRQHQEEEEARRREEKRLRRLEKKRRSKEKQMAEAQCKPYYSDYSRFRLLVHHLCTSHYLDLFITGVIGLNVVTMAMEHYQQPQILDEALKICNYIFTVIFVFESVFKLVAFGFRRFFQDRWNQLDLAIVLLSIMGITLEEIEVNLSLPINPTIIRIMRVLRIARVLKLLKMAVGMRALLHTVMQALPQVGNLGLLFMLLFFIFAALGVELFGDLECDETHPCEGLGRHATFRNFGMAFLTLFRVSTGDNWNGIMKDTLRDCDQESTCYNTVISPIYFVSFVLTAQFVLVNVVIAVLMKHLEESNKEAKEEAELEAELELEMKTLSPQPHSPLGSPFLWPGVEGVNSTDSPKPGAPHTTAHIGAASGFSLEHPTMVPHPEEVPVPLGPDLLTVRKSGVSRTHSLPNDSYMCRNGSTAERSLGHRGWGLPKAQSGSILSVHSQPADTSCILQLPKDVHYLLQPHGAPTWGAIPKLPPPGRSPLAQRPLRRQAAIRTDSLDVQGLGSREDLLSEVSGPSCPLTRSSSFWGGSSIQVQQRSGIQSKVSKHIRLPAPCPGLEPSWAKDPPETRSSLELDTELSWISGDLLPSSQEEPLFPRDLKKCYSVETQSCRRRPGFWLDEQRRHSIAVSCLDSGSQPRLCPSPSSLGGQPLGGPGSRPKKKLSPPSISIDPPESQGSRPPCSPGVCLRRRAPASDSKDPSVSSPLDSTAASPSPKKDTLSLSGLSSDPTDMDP

Compound: N=C(N)NC(=O)c1nc(Cl)c(N)nc1N [amiloride]
- effect on cytokine-induced DNA fragmentation [1]: prevented cytokine-induced DNA fragmentation

Compound: CC(C)[C@H]1c2ccc(F)cc2CC[C@]1(O)CCN(C)CCCc1nc2ccccc2[nH]1.Cl [dm-mibefradil, (1S,2S)-2-[2-[[3-(2-Benzimidazolyl)propyl]methylamino]ethyl]-6-fluoro-1,2,3,4-tetrahydro-1-isopropyl-2-napthyl hydroxy hydrochloride]
- effect on L-type Ca^2+ current from inside of cells ([2]; whole-cell): specifically blocked

Compound: [Cl][Ni][Cl] [NiCl2]
- insulin secretion [3]: not affected
- onset and number of action potentials [4]: a delay in the onset of an action potential and a decrease in number of action potentials
- amplitude of T-type current after drug delivery, % of initial level ([5]; drug diffusing system, about 2 μl of 30 μM delivered near the cell, rapid reduction): 40%
- amplitude of T-type current after recovery, % of initial level ([5]; drug diffusing system, about 2 μl of 30 μM, within 3 minutes): 80%
- reversibility of the inhibition of T-type Ca^2+ current ([5]; drug diffusing system): reversibly block T type Ca^2+ current
- effect on cytokine-induced increase in basal [Ca^2+]i [6]: blocked; also recorded: prevented the increase in [Ca^2+]i
- insulin secretion [7]: reduced insulin secretion in a dose-dependent manner
- block of cytokine-induced LVA Ca^2+ current [8]: blocked
- frequency of spontaneous calcium spikes [9]: reduced the frequency of spontaneous calcium spikes immediately; also recorded: reduced the frequency of transient spontaneous elevation of [Ca^2+]i
- effect on cytokine-induced cell death [10]: effectively reduced the β-cells killing potency of cytokines; also recorded: significantly reduced cell death
- effect on cytokine-induced DNA fragmentation [1]: prevented cytokine-induced DNA fragmentation
- inhibition of spontaneous elevation of basal Ca^2+ [11]: 90%

Compound: CN(N=O)C(=O)N[C@H]1C(O)O[C@H](CO)[C@@H](O)[C@@H]1O (mixture of isomers) [streptozotocin]
- calcium influx on stimulation by 50 KCl [12, 18]: reduced calcium influx compared to control cells
- change in basal calcium [12, 18]: two-fold increase in basal calcium

Compound: COCC(=O)O[C@]1(CCN(C)CCCc2nc3ccccc3[nH]2)CCc2cc(F)ccc2[C@@H]1C(C)C [mibefradil, (1S,2S)-2-[2-[[3-(2-Benzimidazolyl)propyl]methyl-amino]ethyl]-6-fluoro-1,2,3,4-tetrahydro-1-isopropyl-2-napthyl methoxy-acetate dihydrochloride]
- effect on development of hyperinsulinemia [13]: prevented and reversed development of hyperinsulinemia
- basal insulin secretion relative to control [14]: less than 40
- long-term effect on the T-type Ca^2+ current ([5]; 10 nM, perforated patch): no long-term effect
- block of T-type Ca^2+ current ([5]; 1 μM in recording chamber, conventional whole cell patch clamp, dihydrochloride): blocks T- and L-type Ca^2+ current
- effect on T-type Ca^2+ current from inside of cells ([5]; 1 μM in the pipette solution, whole-cell, 5 min after patch formation): did not have inhibitory effects
- sensitivity of T-type versus L-type Ca^2+ current ([5]; 1 μM, pancreatic β-cells): more sensitive
- reversibility of the inhibition of T-type Ca^2+ current ([5]; drug diffusing system, dihydrochloride): clearly reversible; also recorded: reversibly block T type Ca^2+ current
- time dependence of the inhibition of T-type Ca^2+ current ([5]; whole-cell patch clamp, bath perfusion): No time-dependent inhibition
- inhibitory effect on T-type Ca^2+ current [15]: potent inhibitory effect
- concentration of intracellular mibefradil ([16]; cells incubated with 20 μM mibefradil for one minute, 3 washes, n=3): 3.18 ± 0.78 µM
- share of mibefradil detected in the supernatants after lysis of the cells [16, 19]: 92%
- share of mibefradil found in the pellets after washing with methanol [16, 19]: 0%
- effect on cytokine-induced DNA fragmentation [1]: prevented cytokine-induced DNA fragmentation
- effect on basal [Ca^2+]i ([12]; 1 μM, single INS-1 cell with basal [Ca^2+]i near 150 nM, no glucose, dihydrochloride): immediately lowered the basal calcium; also recorded: reduced basal [Ca^2+]i
- effect on cytokine-induced cell death [17]: reduced β-cells death induced by cytokines
- relative L-type Ca^2+ currents ([2]; 10 nM mibefradil, after 25 minutes, perforated patch-clamp): 70%
- L-type current densities after incubation ([2]; 10 nM mibefradil, two hours incubation, perforated patches): further reduction of current densities
- effect on L-type Ca^2+ current from inside of cells ([2]; whole-cell): did not have inhibitory effects
- L-type Ca^2+ current, % of the beginning amplitude ([2]; 1 μM mibefradil, after 10 minutes, whole-cell, n=4): up to 70%
- block of L-type Ca^2+ current ([2]; 1 μM, INS-1 cells): blocks T- and L-type Ca^2+ current
- reversibility of the inhibition of L-type Ca^2+ current ([2]; drug diffusing system, perforated patch): poorly reversible

Source: US20030125269A1, “T-TYPE CALCIUM CHANNEL” (priority 1998, published 2003)
